Assay results taken from US11400063B2, “Early administration of low-dose colchicine after myocardial infarction” (INSTITUT DE CARDIOLOGIE DE MONTREAL, priority 2019, dated 2022).

Test system: patients recruited within 30 days after a myocardial infarction
Test: COLCOT randomized double-blind trial, efficacy end points, colchicine 0.5 mg once daily vs placebo
Assay type: in vivo, human
Procedure: We performed a randomized, double-blind trial involving patients recruited within 30 days after a myocardial infarction. The patients were randomly assigned to receive either low-dose colchicine (0.5 mg once daily) or placebo. A total of 4745 patients were enrolled; 2386 patients were assigned to the colchicine group, and 2379 to the placebo group. Patients were followed for a median of 22.6 months.
The primary efficacy end point was a composite of death from cardiovascular causes, resuscitated cardiac arrest, myocardial infarction (e.g., acute myocardial infraction or type II myocardial infarction), stroke, or urgent hospitalization for angina leading to coronary revascularization. The components of the primary end point and safety were also assessed.
COLCOT was an international multicenter, randomized, double-blinded trial that randomly assigned patients to receive either low-dose colchicine (0.5 mg once daily) or placebo. The study protocol and main results have been published (see, Tardif et al., N Engl J Med 2019). […] Main exclusion criteria were severe heart failure, reduced left ventricular ejection fraction (<35%), recent stroke (<3 months), type 2 MI, recent (<3 years) or planned coronary artery bypass graft (CABG), history of cancer (<3 years), and inflammatory bowel disease or chronic diarrhea. All patients enrolled in the trial benefited from percutaneous coronary intervention whenever indicated and guidelines-directed management of CV disease prior to randomization (see. Tardif et al., N Engl J Med 2019).
Clinical follow-up consisted of evaluations at 1 and 3 months after randomization and every 3 months thereafter. An independent clinical endpoint committee, blinded to trial-group assignment, adjudicated clinical endpoints. The trial was locally approved by the various institutional review boards, and all patients signed a written informed consent before enrollment.
The primary efficacy endpoint was a composite of CV death, resuscitated cardiac arrest, MI, stroke, or urgent hospitalization for angina requiring coronary revascularization. The secondary endpoints consisted of the components of the primary efficacy endpoint, all-cause death, and a composite of CV death, resuscitated cardiac arrest, MI, or stroke. Exploratory endpoints included all coronary revascularizations, including both elective and urgent coronary revascularizations.
The primary efficacy endpoint was a composite of cardiovascular death, MI, ischemic stroke, and urgent coronary revascularization. Secondary efficacy endpoints consisted of the components of the primary endpoint, composite of cardiovascular death, MI, and ischemic stroke, as well as deep vein thrombosis or pulmonary embolus, and atrial fibrillation (AF). To maximize consistency in pooling efficacy endpoints among trials, the primary and secondary composite efficacy and stroke endpoints in COLCOT were modified to meet the definition of primary and stroke endpoints of the LoDoCo2 trial. Therefore, adjudicated events of resuscitated cardiac arrest and non-ischemic stroke in COLCOT were excluded from the pooled primary endpoint. The component endpoint of stroke was also restricted to include only ischemic strokes. Incidence rates and hazards ratios (HRs) were calculated for the new primary composite endpoint and ischemic stroke endpoint using individual patient data from COLCOT.
The COLCOT trial was performed as follows. A randomized, double-blind trial involving patients recruited within 30 days after a myocardial infarction was performed. The patients were randomly assigned to receive either low-dose colchicine (0.5 mg once daily) or placebo. A total of 4745 patients were enrolled; 2386 patients were assigned to the colchicine group, and 2379 to the placebo group. […]

[1] = per-protocol population, colchicine vs placebo
[2] = subgroup History of diabetes: No
[3] = subgroup History of diabetes: Yes
[4] = subgroup History of hypertension: No
[5] = subgroup History of hypertension: Yes
[6] = subgroup Prior PCI or CABG: Yes
[7] = subgroup Prior stroke or TIA: No
[8] = subgroup Prior stroke or TIA: Yes
[9] = subgroup Smoking: Active smoker
[10] = subgroup Smoking: Previous smoker
[11] = subgroup White blood cell count: Above median
[12] = subgroup White blood cell count: Below median

COc1cc2c(c(OC)c1OC)-c1ccc(OC)c(=O)cc1[C@@H](NC(C)=O)CC2 [Colchicine, colchicine]
Resuscitated cardiac arrest, % of patients (per-protocol population): (0.2%) | Resuscitated cardiac arrest, no. of patients (per-protocol population): 5 no. | Stroke, % of patients (per-protocol population): (0.2%) | Stroke, no. of patients (per-protocol population): 5 no. | Urgent hospitalization for angina requiring revascularization, % of patients (per-protocol population): (1.0%) | Urgent hospitalization for angina requiring revascularization, no. of patients (per-protocol population): 22 no. | Primary endpoint, no. of patients (per-protocol population, N = 2260): 115 no. | MI, Hazard Ratio (95% CI) [1]: 0.84 (0.62-1.14) | Primary endpoint, Hazard Ratio (95% CI) [1]: 0.71 (0.56-0.90) | Resuscitated cardiac arrest, Hazard Ratio (95% CI) [1]: 1.00 (0.29-3.46) | Stroke, Hazard Ratio (95% CI) [1]: 0.26 (0.10-0.71) | Urgent hospitalization for angina requiring revascularization, Hazard Ratio (95% CI) [1]: 0.47 (0.28-0.78) | Primary efficacy composite endpoint, % of patients [2]: (4.8%) | Primary efficacy composite endpoint, Hazard ratio (95% CI) [2]: 0.85 (0.64; 1.13) | Primary efficacy composite endpoint, no. of patients with event/total no. of patients [2]: 91/1904 | Primary efficacy composite endpoint, % of patients [3]: (8.7%) | Primary efficacy composite endpoint, Hazard ratio (95% CI) [3]: 0.65 (0.44; 0.96) | Primary efficacy composite endpoint, no. of patients with event/total no. of patients [3]: 40/462 | Primary efficacy composite endpoint, % of patients [4]: (4.1%) | Primary efficacy composite endpoint, Hazard ratio (95% CI) [4]: 0.80 (0.54; 1.17) | Primary efficacy composite endpoint, no. of patients with event/total no. of patients [4]: 48/1181 | Primary efficacy composite endpoint, % of patients [5]: (7.0%) | Primary efficacy composite endpoint, Hazard ratio (95% CI) [5]: 0.76 (0.57; 1.01) | Primary efficacy composite endpoint, no. of patients with event/total no. of patients [5]: 83/1185 | Primary efficacy composite endpoint, % of patients (subgroup Prior MI: No): (4.3%) | Primary efficacy composite endpoint, Hazard ratio (95% CI) (subgroup Prior MI: No): 0.68 (0.51; 0.89) | Primary efficacy composite endpoint, no. of patients with event/total no. of patients (subgroup Prior MI: No): 85/1996 | Primary efficacy composite endpoint, % of patients (subgroup Prior MI: Yes): (12.4%) | Primary efficacy composite endpoint, Hazard ratio (95% CI) (subgroup Prior MI: Yes): 1.05 (0.70; 1.58) | Primary efficacy composite endpoint, no. of patients with event/total no. of patients (subgroup Prior MI: Yes): 46/370 | Primary efficacy composite endpoint, % of patients (subgroup Prior PCI or CABG: No): (4.3%) | Primary efficacy composite endpoint, Hazard ratio (95% CI) (subgroup Prior PCI or CABG: No): 0.72 (0.54; 0.95) | Primary efficacy composite endpoint, no. of patients with event/total no. of patients (subgroup Prior PCI or CABG: No): 83/1947 | Primary efficacy composite endpoint, % of patients [6]: (11.5%) | Primary efficacy composite endpoint, Hazard ratio (95% CI) [6]: 0.91 (0.62; 1.34) | Primary efficacy composite endpoint, no. of patients with event/total no. of patients [6]: 48/419 | Primary efficacy composite endpoint, % of patients [7]: (5.3%) | Primary efficacy composite endpoint, Hazard ratio (95% CI) [7]: 0.76 (0.60; 0.96) | Primary efficacy composite endpoint, no. of patients with event/total no. of patients [7]: 123/2311 | Primary efficacy composite endpoint, % of patients [8]: (14.5%) | Primary efficacy composite endpoint, Hazard ratio (95% CI) [8]: 1.09 (0.42; 2.82) | Primary efficacy composite endpoint, no. of patients with event/total no. of patients [8]: 8/55 | Primary efficacy composite endpoint, % of patients (subgroup Sex: Female): (7.8%) | Primary efficacy composite endpoint, Hazard ratio (95% CI) (subgroup Sex: Female): 0.99 (0.63; 1.58) | Primary efficacy composite endpoint, no. of patients with event/total no. of patients (subgroup Sex: Female): 37/472 | Primary efficacy composite endpoint, % of patients (subgroup Sex: Male): (5.0%) | Primary efficacy composite endpoint, Hazard ratio (95% CI) (subgroup Sex: Male): 0.70 (0.54; 0.91) | Primary efficacy composite endpoint, no. of patients with event/total no. of patients (subgroup Sex: Male): 94/1894 | Primary efficacy composite endpoint, % of patients [9]: (5.4%) | Primary efficacy composite endpoint, Hazard ratio (95% CI) [9]: 0.93 (0.60; 1.44) | Primary efficacy composite endpoint, no. of patients with event/total no. of patients [9]: 38/708 | Primary efficacy composite endpoint, % of patients (subgroup Smoking: Non-smoker): (6.0%) | Primary efficacy composite endpoint, Hazard ratio (95% CI) (subgroup Smoking: Non-smoker): 0.90 (0.61; 1.34) | Primary efficacy composite endpoint, no. of patients with event/total no. of patients (subgroup Smoking: Non-smoker): 47/787 | Primary efficacy composite endpoint, % of patients [10]: (5.3%) | Primary efficacy composite endpoint, Hazard ratio (95% CI) [10]: 0.59 (0.41; 0.85) | Primary efficacy composite endpoint, no. of patients with event/total no. of patients [10]: 46/871 | Primary efficacy composite endpoint, % of patients [11]: (5.3%) | Primary efficacy composite endpoint, Hazard ratio (95% CI) [11]: 0.80 (0.51; 1.25) | Primary efficacy composite endpoint, no. of patients with event/total no. of patients (subgroup White blood cell count: Above median (8.64 × 10^3/μL)): 34/637 | Primary efficacy composite endpoint, % of patients [12]: (6.2%) | Primary efficacy composite endpoint, Hazard ratio (95% CI) [12]: 0.85 (0.56; 1.29) | Primary efficacy composite endpoint, no. of patients with event/total no. of patients (subgroup White blood cell count: Below median (8.64 × 10^3/μL)): 41/660
